Laboratory results as given in ChEMBL document CHEMBL5325474, “Di-indenopyridines as topoisomerase II-selective anticancer agents: Design, synthesis, and structure-activity relationships” (Bioorg Med Chem, 2023).
Calls of active or inactive are those of the source. The calls are words filed in the database; no cut-off is given here.

Legend:
HeLa = test: Antiproliferative activity against human HeLa cells incubated for 72 hrs by microplate reader analysis; type: functional, cell-based
T47D = test: Antiproliferative activity against human T47D cells incubated for 72 hrs by microplate reader analysis; type: functional, cell-based
DU-145 = test: Antiproliferative activity against human DU-145 cells incubated for 72 hrs by microplate reader analysis; type: functional, cell-based; details: DU-145, 72 h
[1] = target: DNA topoisomerase 2-alpha (Homo sapiens) (UniProt P11388); test: Inhibition of human DNA topoisomerase 2 alpha at 100 uM using supercoiled pBR322 DNA as substrate incubated for 30 mins by EtBr staining based agarose gel electrophoresis method relative to control
DNA topoisomerase 2-alpha (Homo sapiens), sequence (P11388 whole entry): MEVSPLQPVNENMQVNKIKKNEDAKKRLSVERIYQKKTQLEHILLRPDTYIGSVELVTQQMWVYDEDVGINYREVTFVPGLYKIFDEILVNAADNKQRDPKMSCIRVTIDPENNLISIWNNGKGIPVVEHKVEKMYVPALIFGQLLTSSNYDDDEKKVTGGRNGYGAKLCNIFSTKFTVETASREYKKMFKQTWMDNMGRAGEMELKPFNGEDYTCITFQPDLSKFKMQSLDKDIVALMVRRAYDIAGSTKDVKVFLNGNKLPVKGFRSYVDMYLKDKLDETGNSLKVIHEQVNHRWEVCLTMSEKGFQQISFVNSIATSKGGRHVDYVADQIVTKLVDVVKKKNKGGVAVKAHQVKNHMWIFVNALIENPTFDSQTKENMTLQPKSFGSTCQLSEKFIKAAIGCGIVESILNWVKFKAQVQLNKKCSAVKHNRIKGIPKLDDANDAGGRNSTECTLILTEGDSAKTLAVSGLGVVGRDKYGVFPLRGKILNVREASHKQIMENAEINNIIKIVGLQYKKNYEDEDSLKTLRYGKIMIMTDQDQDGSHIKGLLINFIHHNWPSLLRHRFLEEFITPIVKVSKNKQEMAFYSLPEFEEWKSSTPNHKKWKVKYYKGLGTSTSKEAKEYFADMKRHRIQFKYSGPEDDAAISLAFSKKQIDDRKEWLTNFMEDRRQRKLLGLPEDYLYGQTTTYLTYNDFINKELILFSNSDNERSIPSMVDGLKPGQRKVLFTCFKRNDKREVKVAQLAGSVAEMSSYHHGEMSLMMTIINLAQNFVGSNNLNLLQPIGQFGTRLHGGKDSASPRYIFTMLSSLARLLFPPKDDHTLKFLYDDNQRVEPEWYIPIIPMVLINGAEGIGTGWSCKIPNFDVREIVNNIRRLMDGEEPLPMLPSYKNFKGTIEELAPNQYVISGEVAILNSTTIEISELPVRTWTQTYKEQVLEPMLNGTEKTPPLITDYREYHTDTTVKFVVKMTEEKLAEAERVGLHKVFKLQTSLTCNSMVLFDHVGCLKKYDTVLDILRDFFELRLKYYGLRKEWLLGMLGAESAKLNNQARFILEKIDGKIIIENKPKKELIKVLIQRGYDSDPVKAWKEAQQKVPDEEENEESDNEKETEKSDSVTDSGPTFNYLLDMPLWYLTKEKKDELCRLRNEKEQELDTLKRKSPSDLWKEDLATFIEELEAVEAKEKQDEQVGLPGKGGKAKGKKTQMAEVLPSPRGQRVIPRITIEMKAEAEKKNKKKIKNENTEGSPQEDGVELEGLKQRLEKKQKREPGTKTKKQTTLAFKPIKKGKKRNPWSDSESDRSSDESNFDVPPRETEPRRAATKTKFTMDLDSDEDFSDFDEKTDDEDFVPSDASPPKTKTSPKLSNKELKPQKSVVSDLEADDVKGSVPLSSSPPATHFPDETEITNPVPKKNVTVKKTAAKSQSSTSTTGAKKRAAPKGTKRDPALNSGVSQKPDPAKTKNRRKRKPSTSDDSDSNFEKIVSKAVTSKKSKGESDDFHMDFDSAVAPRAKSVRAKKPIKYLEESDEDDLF

[2] = target: DNA topoisomerase 2-alpha (Homo sapiens) (UniProt P11388); test: Inhibition of human DNA topoisomerase 2 alpha at 20 uM using supercoiled pBR322 DNA as substrate incubated for 30 mins by EtBr staining based agarose gel electrophoresis method relative to control
HCT-15 = test: Antiproliferative activity against human HCT-15 cells incubated for 72 hrs by microplate reader analysis; type: functional, cell-based; details: HCT-15, 72 h
[3] = target: T1, DNA topoisomerase 1 (Homo sapiens) (UniProt P11387); test: Inhibition of human DNA topoisomerase 1 at 100 uM using supercoiled pBR322 DNA as substrate incubated for 30 mins by EtBr staining based agarose gel electrophoresis method relative to control
T1 sequence (whole entry): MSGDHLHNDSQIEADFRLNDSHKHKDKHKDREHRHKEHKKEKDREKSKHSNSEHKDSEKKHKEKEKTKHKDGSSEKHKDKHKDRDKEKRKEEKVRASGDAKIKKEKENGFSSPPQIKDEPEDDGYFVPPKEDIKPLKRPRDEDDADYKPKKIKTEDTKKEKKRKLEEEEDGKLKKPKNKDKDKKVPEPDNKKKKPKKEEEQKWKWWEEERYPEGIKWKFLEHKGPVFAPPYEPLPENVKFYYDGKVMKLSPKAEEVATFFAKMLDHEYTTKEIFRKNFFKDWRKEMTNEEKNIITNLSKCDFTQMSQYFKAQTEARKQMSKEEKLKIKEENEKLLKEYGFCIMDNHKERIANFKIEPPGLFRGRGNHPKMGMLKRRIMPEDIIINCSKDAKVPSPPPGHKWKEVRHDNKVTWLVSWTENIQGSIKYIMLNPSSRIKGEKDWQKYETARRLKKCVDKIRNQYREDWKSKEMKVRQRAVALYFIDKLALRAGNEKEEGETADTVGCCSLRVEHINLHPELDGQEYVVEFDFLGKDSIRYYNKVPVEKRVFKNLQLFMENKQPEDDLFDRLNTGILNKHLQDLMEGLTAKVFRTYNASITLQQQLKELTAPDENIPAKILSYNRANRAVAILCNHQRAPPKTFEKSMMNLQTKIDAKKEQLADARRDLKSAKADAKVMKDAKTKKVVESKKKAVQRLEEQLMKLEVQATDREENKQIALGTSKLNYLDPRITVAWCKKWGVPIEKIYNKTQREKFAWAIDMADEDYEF

Calf thymus DNA = test: Displacement of EtBr from calf thymus DNA assessed as reduction in fluorescence intensity at 5 to 40 uM preincubated with EtBr for 30 mins followed by compound addition and measured after 30 mins by microplate reader analysis; type: nucleic-acid assay; details: Bos taurus, dose 5-40 µM
[4] = target: DNA topoisomerase 2-alpha (Homo sapiens) (UniProt P11388); test: Catalytic inhibition of human DNA topoisomerase 2 alpha expressed in baculovirus infected insect cells assessed as reduction in linear DNA formation at 200 to 500 uM using supercoiled pBR322 DNA as substrate incubated for 30 mins by agarose gel electrophoresis; details: dose 200-500 µM
[5] = target: DNA topoisomerase 2-alpha (Homo sapiens) (UniProt P11388); test: Poison activity at topoisomerase 2 alpha in human HCT-15 cells at 20 uM incubated for 24 hrs by alkaline comet assay; type: cell-based

Structure (SMILES) | IC50 (HeLa) [µM] | IC50 (T47D) [µM] | IC50 (DU-145) [µM] | inhibition [1] [%] | inhibition [2] [%] | IC50 (HCT-15) [µM] | inhibition [3] [%] | Activity (Calf thymus DNA) | inhibition [4] | Activity [5]
Oc1ccccc1-c1c2c(nc3c1Cc1c(O)cccc1-3)-c1cccc(O)c1C2 | 2.1 | 5.3 | > 50 | 77.1 | 41.8 | 8.69 | – | – | – | –
Oc1ccc(-c2c3c(nc4c2Cc2c(O)cccc2-4)-c2cccc(O)c2C3)cc1 | 0.94 | 3.34 | 5.03 | 13.9 | – | 4.89 | – | – | – | –
Oc1cccc2c1Cc1c-2nc2c(c1-c1ccccc1)Cc1c(O)cccc1-2 | 0.59 | 1.12 | 3.66 | 100 | 1.6 | 1.51 | -0 | – | – | –
c1ccc(-c2c3c(nc4c2Cc2ccccc2-4)-c2ccccc2C3)cc1 | > 50 | > 50 | > 50 | 2.6 | – | > 50 | -0 | – | – | –
Oc1ccccc1-c1c2c(nc3c1Cc1cccc(O)c1-3)-c1c(O)cccc1C2 | 1.56 | 3.82 | 1.81 | -0 | – | 4.84 | – | – | – | –
Oc1cccc2c1-c1nc3c(c(-c4ccccc4OC(F)(F)F)c1C2)Cc1cccc(O)c1-3 | 3.23 | 0.05 | 0.87 | 84.8 | 1.6 | 0.93 | -0 | – | – | –
Oc1cccc(-c2c3c(nc4c2Cc2cccc(O)c2-4)-c2c(O)cccc2C3)c1 | 0.87 | 6.84 | 2.58 | 26 | – | 0.96 | – | – | – | –
COc1cccc2c1C(=O)c1c(O)c3c(c(O)c1C2=O)C[C@@](O)(C(=O)CO)C[C@@H]3O[C@H]1C[C@H](N)[C@H](O)[C@H](C)O1 [DOXORUBICIN] | 1.68 | 2.53 | 5.53 | – | – | 3.53 | – | – | – | –
COc1cc([C@@H]2c3cc4c(cc3[C@@H](O[C@@H]3O[C@@H]5CO[C@@H](C)O[C@H]5[C@H](O)[C@H]3O)[C@H]3COC(=O)[C@H]23)OCO4)cc(OC)c1O [ETOPOSIDE] | 3.38 | 0.97 | 9.87 | – | – | 1.97 | – | – | – | –
CC[C@@]1(O)C(=O)OCc2c1cc1n(c2=O)Cc2cc3ccccc3nc2-1 [CAMPTOTHECIN] | – | – | 0.61 | – | – | – | – | – | – | –
Oc1ccc(-c2c3c(nc4c2Cc2cccc(O)c2-4)-c2c(O)cccc2C3)cc1 | 2.96 | 4.33 | 0.89 | 43.6 | 31.7 | 0.95 | – | – | – | –
Oc1ccc(-c2c3c(nc4c2Cc2c(F)cccc2-4)-c2cccc(F)c2C3)cc1 | > 50 | > 50 | > 50 | 41.5 | 2.5 | > 50 | -0 | – | – | –
Oc1cccc2c1-c1nc3c(c(-c4ccsc4)c1C2)Cc1cccc(O)c1-3 | > 50 | > 50 | > 50 | 13.4 | – | > 50 | -0 | – | – | –
Oc1cccc(-c2c3c(nc4c2Cc2c(O)cccc2-4)-c2cccc(O)c2C3)c1 | > 50 | > 50 | > 50 | 21.2 | – | > 50 | -0 | – | – | –
Oc1cccc2c1Cc1c-2nc2c(c1-c1ccco1)Cc1c(O)cccc1-2 | 9.63 | 4.16 | 5.23 | 100 | 100 | 1.71 | -0 | inactive | Active | inactive
Oc1ccc(-c2c3c(nc4c2Cc2ccc(C(F)(F)F)cc2-4)-c2cc(C(F)(F)F)ccc2C3)cc1 | > 50 | > 50 | 2.57 | 51.4 | 4.5 | > 50 | 7.1 | – | – | –
COc1cc(NS(C)(=O)=O)ccc1Nc1c2ccccc2nc2ccccc12 | – | – | – | – | – | – | – | Active | – | –

Second part, led by results:

IC50 (HeLa) [µM] | IC50 (T47D) [µM] | IC50 (DU-145) [µM] | inhibition [1] [%] | inhibition [2] [%] | IC50 (HCT-15) [µM] | inhibition [3] [%] | Activity (Calf thymus DNA) | inhibition [4] | Structure (SMILES) | Activity [5]
> 50 | > 50 | > 50 | 22.5 | – | > 50 | – | – | – | Oc1cccc(-c2c3c(nc4c2Cc2ccc(O)cc2-4)-c2cc(O)ccc2C3)c1 | –
5.39 | 8.86 | 7.86 | 90.3 | 65.9 | 3.86 | – | – | – | Oc1ccc2c(c1)-c1nc3c(c(-c4ccccc4O)c1C2)Cc1ccc(O)cc1-3 | –
> 50 | > 50 | > 50 | 91.4 | 3.5 | > 50 | -0 | – | – | Oc1ccc2c(c1)Cc1c-2nc2c(c1-c1cccc(Cl)c1)Cc1cc(O)ccc1-2 | –
> 50 | > 50 | > 50 | 96.5 | 3.2 | > 50 | -0 | – | – | Oc1ccc2c(c1)Cc1c-2nc2c(c1-c1cccc(F)c1)Cc1cc(O)ccc1-2 | –
> 50 | 6.38 | > 50 | 73.1 | 55.7 | > 50 | – | – | – | Oc1ccc(-c2c3c(nc4c2Cc2cc(O)ccc2-4)-c2ccc(O)cc2C3)cc1 | –
20.4 | 5.24 | > 50 | 84.2 | 78 | 27.8 | – | – | – | Oc1ccc(-c2c3c(nc4c2Cc2ccc(O)cc2-4)-c2cc(O)ccc2C3)cc1 | –
22.5 | > 50 | 31.4 | 93.3 | 7.5 | 46.1 | – | – | – | Oc1ccc2c(c1)Cc1c-2nc2c(c1-c1ccccc1O)Cc1cc(O)ccc1-2 | –
10.5 | 5.8 | 5.84 | 0.1 | – | 9.06 | -0 | – | – | Oc1ccc2c(c1)-c1nc3c(c(-c4ccc(C(F)(F)F)cc4)c1C2)Cc1ccc(O)cc1-3 | –
> 50 | > 50 | > 50 | 56.8 | 40.8 | > 50 | – | – | – | Oc1cccc(-c2c3c(nc4c2Cc2cc(O)ccc2-4)-c2ccc(O)cc2C3)c1 | –
0.93 | 0.17 | 0.96 | 59.5 | 4.7 | 0.45 | 0.4 | – | – | Oc1ccc2c(c1)-c1nc3c(c(-c4cccs4)c1C2)Cc1ccc(O)cc1-3 | –
